Source: patent publication US5488060A, “Substituted thiadiazoles, compositions containing them and their use as antimicrobial and marine antifouling agents” (The Dow Chemical Company, priority 1994, dated 1996)
In brackets after ≈: the same amount, converted by molar mass. Like-named read-outs stand apart in the source and are kept apart here.

Tests used:
Type in all cases: cell-based
[1] = test system: Klebsiella pneumoniae (Kp); experiment: Minimum inhibitory concentration (MIC) in nutrient agar, Klebsiella pneumoniae
Experimental: (§1) The antimicrobial activity of the compounds of the present invention is set forth as the minimum inhibitory concentration (MIC) for the active compounds and is determined for nine (9) bacteria, using nutrient agar, and seven (7) yeast and fungi, using malt yeast agar. This determination is conducted using a one percent solution of the test compound prepared in a mixture of acetone and water.
(§2) Nutrient agar is prepared at pH 6.8, representing a neutral medium, and at pH 8.2, representing an alkaline medium. The nutrient agars are prepared by adding 23 g of nutrient agar to one-liter of deionized water. In addition, the alkaline medium is prepared by adjusting a 0.04M solution of N-[tris-(hydroxymethyl)methyl]glycine buffered deionized water with concentrated sodium hydroxide to a pH of 8.5.
(§3) The test tubes containing the agar are cooled in a water bath until the temperature of the agar is 48° C. Then, an appropriate amount of the one percent solution of the test compound is added (except in the controls where no compound is added) to the respective test tubes so that the final concentrations are 500, […], 100, 50, 25, 10, 5, 2.5, 1.0 and zero parts per million of the test compound in the agar, thus having a known concentration of test compound dispersed therein. The contents of the test tubes are then transferred to respective petri plates. After drying for 24 hours, the petri plates containing nutrient agar are inoculated with bacteria and those containing malt yeast agar are inoculated with yeast and fungi.
(§4) The inoculation with bacteria is accomplished by using the following procedure. Twenty-four hour-cultures of each of the bacteria are prepared by incubating the respective bacteria in tubes containing nutrient broth for 24 hours at 30° C. in a shaker. Dilutions of each of the 24 hour-cultures are made so that nine separate suspensions (one for each of the nine test bacteria) are made, each containing 10^8 colony forming units (CFU) per mL of suspension of a particular bacteria. Aliquots of 0.3 mL of each of the bacterial suspensions are used to fill the individual wells of Steer's Replicator. For each microbial suspension, 0.3 mL was used to fill three wells (i.e., three wells of 0.3 mL each) so that for the nine different bacteria, 27 wells are filled. The Steer's Replicator is then used to inoculate both the neutral and alkaline pH nutrient agar petri plates.
(§5) The inoculated petri plates are incubated at 30° C. for 48 hours and then read to determine if the test compound which is incorporated into the agar prevented growth of the respective bacteria.

[2] = test system: Saccharomyces cerevisiae (Sc); experiment: Minimum inhibitory concentration (MIC) in malt yeast agar, Saccharomyces cerevisiae
Experimental: as §1
(§6) Malt yeast agar is prepared at pH 5.5 by adding 3 g yeast extract and 45 g malt agar per liter of deionized water. The specific agar is dispensed in 30 mL aliquots into 25×200 mm test tubes, capped and autoclaved for 15 minutes at 115° C.
as §3
(§7) The inoculation with the yeast and fungi is accomplished as follows. Cultures of yeast and fungi are incubated for seven days on malt yeast agar at 30° C. These cultures are used to prepare suspensions by the following procedure. A suspension of each organism is prepared by adding 10 mL of sterile saline and 10 microliters of octylphenoxy polyethoxy ethanol to the agar slant of yeast or fungi. The sterile saline/octylphenoxy potyethoxy ethanol solution is then agitated with a sterile swab to suspend the microorganism grown on the slant. Each resulting suspension is diluted into sterile saline (1 part suspension: 9 parts sterile saline). Aliquots of these dilutions are placed in individual wells of Steer's Replicator and petri plates inoculated as previously described. The petri plates are incubated at 30° C. and read after 48 hours for yeast and 72 hours for fungi.

[3] = test system: Salmonella choleraesuis (Se); experiment: Minimum inhibitory concentration (MIC) in nutrient agar, Salmonella choleraesuis; settings: Salmonella enterica, 48 h
Experimental: as §1, §2, §3, §4, §5

[4] = test system: Penicillium chrysogenum (Pc); experiment: Minimum inhibitory concentration (MIC) in malt yeast agar, Penicillium chrysogenum
Experimental: as §1, §6, §3, §7

[5] = test system: Pseudomonas aeruginosa (Pa); experiment: Minimum inhibitory concentration (MIC) in nutrient agar, Pseudomonas aeruginosa
Experimental: as §1, §2, §3, §4, §5

[6] = test system: Staphylococcus aureus (Sa); experiment: Minimum inhibitory concentration (MIC) in nutrient agar, Staphylococcus aureus
Experimental: as §1, §2, §3, §4, §5

Fusarium oxysporum (Fo) = experiment: Minimum inhibitory concentration (MIC) in malt yeast agar, Fusarium oxysporum; settings: pH 5.5; malt yeast agar, 30° C., 72 hours for fungi; read-out: Minimum Inhibitory Concentration, Fo
Experimental: as §1, §6, §3, §7

Proteus vulgaris (Pv) = experiment: Minimum inhibitory concentration (MIC) in nutrient agar, Proteus vulgaris; settings: 48 h
Experimental: as §1, §2, §3, §4, §5

Candida albicans (Ca) = experiment: Minimum inhibitory concentration (MIC) in malt yeast agar, Candida albicans
Experimental: as §1, §6, §3, §7

Trichoderma viride (Tv) = experiment: Minimum inhibitory concentration (MIC) in malt yeast agar, Trichoderma viride
Experimental: as §1, §6, §3, §7

[7] = test system: Aureobasidium pullulan (Ap); experiment: Minimum inhibitory concentration (MIC) in malt yeast agar, Aureobasidium pullulan
Experimental: as §1, §6, §3, §7

Bacillus subtilis (Bs) = experiment: Minimum inhibitory concentration (MIC) in nutrient agar, Bacillus subtilis
Experimental: as §1, §2, §3, §4, §5

Aspergillus niger (An) = experiment: Minimum inhibitory concentration (MIC) in malt yeast agar, Aspergillus niger
Experimental: as §1, §6, §3, §7

[8] = test system: Pseudomonas aeruginosa (PRD-10); experiment: Minimum inhibitory concentration (MIC) in nutrient agar, Pseudomonas aeruginosa PRD-10; settings: 48 h
Experimental: as §1, §2, §3, §4, §5

Escherichia coli (Ec) = experiment: Minimum inhibitory concentration (MIC) in nutrient agar, Escherichia coli; settings: 48 h
Experimental: as §1, §2, §3, §4, §5

[9] = test system: Enterobacter aerogenes (Ea); experiment: Minimum inhibitory concentration (MIC) in nutrient agar, Enterobacter aerogenes; settings: Klebsiella aerogenes, 48 h
Experimental: as §1, §2, §3, §4, §5

[10] = pH 5.5, malt yeast agar, 30° C., 48 hours for yeast, read-out: Minimum Inhibitory Concentration, SC
[11] = pH 6.8, read-out: Minimum Inhibitory Concentration, SC
[12] = pH 8.2, read-out: Minimum Inhibitory Concentration, SC
[13] = 72 h, pH 5.5, read-out: Minimum Inhibitory Concentration, PC
[14] = pH 6.8, nutrient agar, 30° C., 48 hours, read-out: Minimum Inhibitory Concentration, Pa
[15] = pH 8.2, nutrient agar, 30° C., 48 hours, read-out: Minimum Inhibitory Concentration, Pa
[16] = 48 h, pH 8.2, read-out: Minimum Inhibitory Concentration, Sa
[17] = pH 6.8, nutrient agar, 30° C., 48 hours, read-out: Minimum Inhibitory Concentration, Sa
[18] = pH 6.8, read-out: Minimum Inhibitory Concentration, Pv
[19] = pH 8.2, read-out: Minimum Inhibitory Concentration, Pv
[20] = pH 5.5, malt yeast agar, 30° C., 48 hours for yeast, read-out: Minimum Inhibitory Concentration, Ca
[21] = pH 5.5, malt yeast agar, 30° C., read-out: Minimum Inhibitory Concentration, Ap
[22] = 48 h, pH 8.2, read-out: Minimum Inhibitory Concentration, Bs
[23] = pH 6.8, nutrient agar, 30° C., 48 hours, read-out: Minimum Inhibitory Concentration, Bs
[24] = pH 5.5, malt yeast agar, 30° C., 72 hours for fungi, read-out: Minimum Inhibitory Concentration, An
[25] = pH 6.8, read-out: Minimum Inhibitory Concentration, PRD
[26] = pH 8.2, read-out: Minimum Inhibitory Concentration, PRD
[27] = pH 6.8, read-out: Minimum Inhibitory Concentration, Ec
[28] = pH 8.2, read-out: Minimum Inhibitory Concentration, Ec
[29] = pH 6.8, read-out: Minimum Inhibitory Concentration, Ea
[30] = pH 8.2, read-out: Minimum Inhibitory Concentration, Ea
[31] = 48 h, pH 8.2, read-out: Minimum Inhibitory Concentration, Kp
[32] = pH 6.8, nutrient agar, 30° C., 48 hours, read-out: Minimum Inhibitory Concentration, Kp
[33] = pH 5.5, malt yeast agar, 30° C., 72 hours for fungi, read-out: Minimum Inhibitory Concentration, PC
[34] = pH 5.5, malt yeast agar, 30° C., 72 hours for fungi, read-out: Minimum Inhibitory Concentration, Tv
[35] = pH 5.5, read-out: Minimum Inhibitory Concentration, Ap

Compound	MIC [2, 10]	MIC [3, 11]	MIC [3, 12]	MIC [5, 14]	MIC [5, 15]	MIC [6, 16]	MIC [6, 17]	MIC (Proteus vulgaris (Pv); [18])	MIC (Proteus vulgaris (Pv); [19])	MIC (Candida albicans (Ca); [20])	MIC (Bacillus subtilis (Bs); [22])	MIC (Bacillus subtilis (Bs); [23])	MIC (Aspergillus niger (An); [24])	MIC [8, 25]	MIC [8, 26]	MIC (Escherichia coli (Ec); [27])	MIC (Escherichia coli (Ec); [28])	MIC [9, 29]	MIC [9, 30]	MIC [1, 31]	also measured
N#CSc1nsnc1-c1ccc(Cl)cc1 [Example II, 4-(4-Chlorophenyl)-3-thiocyanato-1,2,5-thiadiazole]	< 10 µg/mL	> 500 µg/mL	500 µg/mL (≈ 1970 µM)	> 500 µg/mL	500 µg/mL (≈ 1970 µM)	500 µg/mL (≈ 1970 µM)	250 µg/mL (≈ 985 µM)	> 500 µg/mL	> 500 µg/mL	< 10 µg/mL	500 µg/mL (≈ 1970 µM)	250 µg/mL (≈ 985 µM)	< 10 µg/mL	> 500 µg/mL	> 500 µg/mL	50 µg/mL (≈ 197 µM)	> 500 µg/mL	> 500 µg/mL	> 500 µg/mL		MIC ([1]; 48 h, pH 6.8, read-out: Minimum Inhibitory Concentration, Kp): 50 µg/mL (≈ 197 µM); MIC ([1]; pH 8.2, nutrient agar, 30° C., 48 hours, read-out: Minimum Inhibitory Concentration, Kp): 250 µg/mL (≈ 985 µM); MIC [4, 13]: < 10 µg/mL; MIC (Fusarium oxysporum (Fo)): < 10 µg/mL; MIC (Trichoderma viride (Tv); 72 h, pH 5.5, read-out: Minimum Inhibitory Concentration, Tv): < 10 µg/mL; MIC [7, 21]: < 10 µg/mL
COc1cccc(-c2nsnc2SC#N)c1 [Example VII, a-(3-Methoxyphenyl)-3-thiocyanato-1,2,5-thiadiazole]	5 µg/mL (≈ 20.1 µM)	> 500 µg/mL	500 µg/mL (≈ 2010 µM)	> 500 µg/mL	500 µg/mL (≈ 2010 µM)	500 µg/mL (≈ 2010 µM)	250 µg/mL (≈ 1000 µM)	> 500 µg/mL	500 µg/mL (≈ 2010 µM)		250 µg/mL (≈ 1000 µM)	25 µg/mL (≈ 100 µM)	10 µg/mL (≈ 40.1 µM)	> 500 µg/mL	500 µg/mL (≈ 2010 µM)	> 500 µg/mL	500 µg/mL (≈ 2010 µM)	> 500 µg/mL	500 µg/mL (≈ 2010 µM)	500 µg/mL (≈ 2010 µM)	MIC [1, 32]: > 500 µg/mL; MIC [4, 33]: 25 µg/mL (≈ 100 µM); MIC (Candida albicans (Ca); 48 h, pH 5.5, read-out: Minimum Inhibitory Concentration, Ca): 50 µg/mL (≈ 201 µM); MIC (Trichoderma viride (Tv); [34]): 5 µg/mL (≈ 20.1 µM); MIC [7, 35]: 5 µg/mL (≈ 20.1 µM)
N#CSc1nsnc1-c1ccc(C(F)(F)F)cc1 [Example X, 4-(4-Trifluoromethylphenyl)-3-thiocyanato-1,2,5-thiadiazole]		> 500 µg/mL	500 µg/mL (≈ 1740 µM)		500 µg/mL (≈ 1740 µM)	500 µg/mL (≈ 1740 µM)	> 500 µg/mL	> 500 µg/mL	500 µg/mL (≈ 1740 µM)	5 µg/mL (≈ 17.4 µM)	500 µg/mL (≈ 1740 µM)	25 µg/mL (≈ 87 µM)	5 µg/mL (≈ 17.4 µM)	> 500 µg/mL	500 µg/mL (≈ 1740 µM)	> 500 µg/mL	500 µg/mL (≈ 1740 µM)	> 500 µg/mL	500 µg/mL (≈ 1740 µM)	500 µg/mL (≈ 1740 µM)	MIC [1, 32]: > 500 µg/mL; MIC ([2]; 48 h, pH 5.5, read-out: Minimum Inhibitory Concentration, SC): 2.5 µg/mL (≈ 8.7 µM); MIC [4, 33]: 5 µg/mL (≈ 17.4 µM); MIC ([5]; 48 h, pH 6.8, read-out: Minimum Inhibitory Concentration, Pa): > 50 µg/mL; MIC (Trichoderma viride (Tv); [34]): 2.5 µg/mL (≈ 8.7 µM); MIC [7, 35]: 2.5 µg/mL (≈ 8.7 µM)
COC(=O)c1ccc(-c2nsnc2SC#N)cc1 [Example XII]	10 µg/mL (≈ 36.1 µM)	500 µg/mL (≈ 1800 µM)	500 µg/mL (≈ 1800 µM)	500 µg/mL (≈ 1800 µM)	500 µg/mL (≈ 1800 µM)	500 µg/mL (≈ 1800 µM)	500 µg/mL (≈ 1800 µM)	500 µg/mL (≈ 1800 µM)	500 µg/mL (≈ 1800 µM)	10 µg/mL (≈ 36.1 µM)	500 µg/mL (≈ 1800 µM)	25 µg/mL (≈ 90.1 µM)		500 µg/mL (≈ 1800 µM)	500 µg/mL (≈ 1800 µM)	500 µg/mL (≈ 1800 µM)	500 µg/mL (≈ 1800 µM)	500 µg/mL (≈ 1800 µM)	500 µg/mL (≈ 1800 µM)	500 µg/mL (≈ 1800 µM)	MIC [1, 32]: 500 µg/mL (≈ 1800 µM); MIC [4, 13]: 100 µg/mL (≈ 361 µM); MIC (Fusarium oxysporum (Fo)): 10 µg/mL (≈ 36.1 µM); MIC [7, 21]: 10 µg/mL (≈ 36.1 µM); MIC (Aspergillus niger (An); 72 h, pH 5.5, read-out: Minimum Inhibitory Concentration, An): 25 µg/mL (≈ 90.1 µM)
